From patent publication US4534898A, “1-Oxa-1-dethia-cephalosporin derivatives” (Merck & Co., Inc., priority 1982, dated 1985)
≈ marks a conversion by molar mass, not a printed value. Like-named read-outs stand apart in the source and are kept apart here.

What was measured:
Type in all cases: cell-based
[1] = tested on: Staph. aureus Smith; experiment: MIC against Staph. aureus Smith; conditions: Staphylococcus aureus
Description: (§1) The compounds (I) of this invention are clearly different from various cephem derivatives described in Japanese Patent Pre-publication ("Kokai") No. 25551/78 and U.S. Pat. No. 4,226,866 in respect of the presence of a lower alkyl group at 2-position of the cephem nucleus. […] Minimum inhibitory concentrations (M.I.C.) (μg/ml) of the compounds (I) to various bacteria are set out in Table 1 below.

[2] = tested on: Staph. aureus 209P JC-1; experiment: MIC against Staph. aureus 209P JC-1; conditions: Staphylococcus aureus
Description: as §1

[3] = tested on: Kl. pneumoniae PCI 602; experiment: MIC against Kl. pneumoniae PCI 602; conditions: Klebsiella pneumoniae, PCI602
Description: as §1

[4] = tested on: Pr. mirabilis GN79; experiment: MIC against Pr. mirabilis GN79; conditions: Proteus mirabilis
Description: as §1

[5] = tested on: S. typhimurium LT-2; experiment: MIC against S. typhimurium LT-2; conditions: Salmonella enterica
Description: as §1

[6] = tested on: Pr. vulgaris GN76; experiment: MIC against Pr. vulgaris GN76; conditions: Proteus vulgaris
Description: as §1

[7] = tested on: Pr. rettgeri GN624; experiment: MIC against Pr. rettgeri GN624; conditions: Providencia rettgeri
Description: as §1

[8] = tested on: C. freundii CN346; experiment: MIC against C. freundii CN346; conditions: Citrobacter freundii
Description: as §1

[9] = tested on: Ent. cloacae G-0006; experiment: MIC against Ent. cloacae G-0006; conditions: Enterobacter cloacae, G0006
Description: as §1

[10] = tested on: Ser. marcescens No. 2; experiment: MIC against Ser. marcescens No. 2; conditions: Serratia marcescens
Description: as §1

[11] = tested on: Ps. aeruginosa; experiment: MIC against Ps. aeruginosa; conditions: Pseudomonas aeruginosa
Description: as §1

[12] = S. typhimurium LT-2, read-out: MIC
[13] = Pr. vulgaris GN76, read-out: MIC
[14] = C. freundii CN346, read-out: MIC
[15] = Ser. marcescens No. 2, read-out: MIC

Molecule `CO[C@@]1(NC(=O)C(C(=O)O)c2cccs2)C(=O)N2C(C(=O)O)=C(CSc3nnnn3C)[C@@H](C)O[C@@H]21` (stereo partly drawn) [compound 5, 7β-[2-(2-Thienyl)-2-carboxyacetamido]-7α-methoxy-2α-methyl-3-(1-methyl-1H--tetrazole-5-yl)thiomethyl-1-oxa-1-dethia-3-cephem-4-carboxylic acid] has an MIC [1] of 0.78 µg/mL (≈ 1.49 µM), an MIC [2] of 0.78 µg/mL (≈ 1.49 µM) and an MIC [3] of 1.56 µg/mL (≈ 2.97 µM). It also gave an MIC [4] of 0.78 µg/mL (≈ 1.49 µM), an MIC [5, 12] of 0.1 µg/mL (≈ 0.191 µM) and an MIC [6, 13] of 0.39 µg/mL (≈ 0.744 µM). For the same molecule, the MIC [7] was 3.13 µg/mL (≈ 5.97 µM), the MIC [8, 14] was 25 µg/mL (≈ 47.7 µM) and the MIC [9] was 100 µg/mL (≈ 191 µM). The MIC [10, 15] was 0.78 µg/mL (≈ 1.49 µM) and the MIC [11] was 100 µg/mL (≈ 191 µM).
In the case of `CO[C@@]1(NC(=O)Cc2cccs2)C(=O)N2C(C(=O)O)=C(CSc3nnnn3C)[C@@H](C)O[C@@H]21` [compound 3, 7β-(2-Thienylacetamido)-7α-methoxy-2α-methyl-3-(1-methyl-1H--tetrazole-5-yl)thiomethyl-1-oxa-1-dethia-3-cephem-4-carboxylic acid], the MIC [1] is reported as 0.39 µg/mL (≈ 0.812 µM), the MIC [2] is reported as 0.39 µg/mL (≈ 0.812 µM) and the MIC [3] is reported as 25 µg/mL (≈ 52 µM). For the same molecule, the MIC [4] was over 100 µg/mL, the MIC ([5]; TYPHIMURIUM) was 1.56 µg/mL (≈ 3.25 µM) and the MIC [6, 13] was 12.5 µg/mL (≈ 26 µM). For the same molecule, the MIC [7] was over 100 µg/mL, the MIC [8, 14] was over 100 µg/mL and the MIC [9] was over 100 µg/mL. The MIC [10, 15] was 12.5 µg/mL (≈ 26 µM) and the MIC [11] was over 100 µg/mL.
`C[C@H]1O[C@@H]2[C@H](NC(=O)Cc3cccs3)C(=O)N2C(C(=O)O)=C1CSc1nnnn1C` [compound 1, 7-(2-Thienylacetamido)-2α-methyl-3-(1-methyl-1H--tetrazole-5-yl)thiomethyl-1-oxa-1-dethia-3-cephem-4-carboxylic acid] showed an MIC [1] of 0.2 µg/mL (≈ 0.444 µM), an MIC [2] of 0.2 µg/mL (≈ 0.444 µM) and an MIC [3] of 0.1 µg/mL (≈ 0.222 µM). It also gave an MIC [4] of 0.1 µg/mL (≈ 0.222 µM), an MIC [5, 12] of 0.025 µg/mL (≈ 0.0555 µM) and an MIC [6, 13] of 0.1 µg/mL (≈ 0.222 µM). The MIC [7] was 0.05 µg/mL (≈ 0.111 µM), the MIC [8, 14] was 3.13 µg/mL (≈ 6.95 µM) and the MIC [9] was 25 µg/mL (≈ 55.5 µM). For the same molecule, the MIC [10, 15] was 0.1 µg/mL (≈ 0.222 µM) and the MIC [11] was 12.5 µg/mL (≈ 27.7 µM).
Work on `CO[C@@]1(NC(=O)C(C(=O)O)c2cccs2)C(=O)N2C(C(=O)O)=C(CSc3nnnn3C)[C@H](C)O[C@@H]21` (stereo partly drawn) [compound 6, 7β-[2-(2-Thienyl)-2-carboxyacetamido]-7α-methoxy-2β-methyl-3-(1-methyl-1H--tetrazole-5-yl)thiomethyl-1-oxa-1-dethia-3-cephem-4-carboxylic acid] yielded an MIC [1] of 0.78 µg/mL (≈ 1.49 µM), an MIC [2] of 0.39 µg/mL (≈ 0.744 µM) and an MIC [3] of 1.56 µg/mL (≈ 2.97 µM). The MIC [4] was 0.1 µg/mL (≈ 0.191 µM), the MIC [5, 12] was at most 0.025 µg/mL and the MIC [6, 13] was 0.1 µg/mL (≈ 0.191 µM). The MIC [7] was at most 0.025 µg/mL, the MIC ([8]; CN346) was 1.56 µg/mL (≈ 2.97 µM) and the MIC [9] was 6.25 µg/mL (≈ 11.9 µM). For the same molecule, the MIC [10, 15] was 0.2 µg/mL (≈ 0.381 µM) and the MIC [11] was 25 µg/mL (≈ 47.7 µM).
With `C[C@@H]1O[C@@H]2[C@H](NC(=O)Cc3cccs3)C(=O)N2C(C(=O)O)=C1CSc1nnnn1C` [compound 2, 7-(2-Thienylacetamido)-2β-methyl-3-(1-methyl-1H--tetrazole-5-yl)thiomethyl-1-oxa-1-dethia-3-cephem-4-carboxylic acid] the MIC [1] was 0.05 µg/mL (≈ 0.111 µM), the MIC [2] was 0.025 µg/mL (≈ 0.0555 µM) and the MIC [3] was 1.56 µg/mL (≈ 3.46 µM). For the same molecule, the MIC [4] was 12.5 µg/mL (≈ 27.7 µM), the MIC [5, 12] was 0.1 µg/mL (≈ 0.222 µM) and the MIC ([6]; GN76) was 1.56 µg/mL (≈ 3.46 µM). For the same molecule, the MIC [7] was 12.5 µg/mL (≈ 27.7 µM), the MIC [8, 14] was 100 µg/mL (≈ 222 µM) and the MIC [9] was 100 µg/mL (≈ 222 µM). For the same molecule, the MIC [10, 15] was 6.25 µg/mL (≈ 13.9 µM) and the MIC [11] was over 100 µg/mL.
`CO[C@@]1(NC(=O)Cc2cccs2)C(=O)N2C(C(=O)O)=C(CSc3nnnn3C)[C@H](C)O[C@@H]21` [compound 4, 7β-(2-Thienylacetamido)-7α-methoxy-2β-methyl-3-(1-methyl-1H--tetrazole-5-yl)thiomethyl-1-oxa-1-dethia-3-cephem-4-carboxylic acid] showed an MIC [1] of 0.2 µg/mL (≈ 0.416 µM), an MIC [2] of 0.2 µg/mL (≈ 0.416 µM) and an MIC [3] of 1.56 µg/mL (≈ 3.25 µM). The MIC [4] was 12.5 µg/mL (≈ 26 µM), the MIC [5, 12] was 0.05 µg/mL (≈ 0.104 µM) and the MIC [6, 13] was 0.39 µg/mL (≈ 0.812 µM). For the same molecule, the MIC [7] was 25 µg/mL (≈ 52 µM), the MIC [8, 14] was 100 µg/mL (≈ 208 µM) and the MIC [9] was 100 µg/mL (≈ 208 µM). The MIC ([10]; NO.2) was 1.56 µg/mL (≈ 3.25 µM) and the MIC [11] was over 100 µg/mL.
Molecule `CO[C@@]1(NC(=O)C(C(=O)O)c2ccsc2)C(=O)N2C(C(=O)O)=C(CSc3nnnn3C)[C@H](C)O[C@@H]21` (stereo partly drawn) [compound 7, 7β-[2-(3-Thienyl)-2-carboxyacetamido]-7α-methoxy-2β-methyl-3-(1-methyl-1H--tetrazole-5-yl)thiomethyl-1-oxa-1-dethia-3-cephem-4-carboxylic acid] has an MIC [1] of 1.56 µg/mL (≈ 2.97 µM), an MIC [2] of 1.56 µg/mL (≈ 2.97 µM) and an MIC [3] of 0.05 µg/mL (≈ 0.0953 µM). The MIC [4] was 0.2 µg/mL (≈ 0.381 µM), the MIC [5, 12] was at most 0.025 µg/mL and the MIC [6, 13] was 0.1 µg/mL (≈ 0.191 µM). For the same molecule, the MIC [7] was 0.05 µg/mL (≈ 0.0953 µM), the MIC [8, 14] was 1.56 µg/mL (≈ 2.97 µM) and the MIC [9] was 3.13 µg/mL (≈ 5.97 µM). For the same molecule, the MIC [10, 15] was 0.2 µg/mL (≈ 0.381 µM) and the MIC [11] was 25 µg/mL (≈ 47.7 µM).
